This is an account of results in ChEMBL document CHEMBL1128170, “Stereochemistry of the benzodiazepine based Ras farnesyltransferase inhibitors” (Bioorg Med Chem Lett, 1995).

Each structure is given as a SMILES string.

By IC50 is commonly meant the concentration that inhibits the measured activity by half.

The assay deals with Protein farnesyltransferase (Rattus norvegicus, UniProt Q02293+Q04631). Put plainly: Tested for inhibitory activity against rat brain p21ras Ras Farnesyltransferase (FTase).

Consider `CSCC[C@@H](NC(=O)CN1C(=O)[C@H](N(C)C(=O)[C@@H](N)CS)N=C(c2ccccc2)c2ccccc21)C(=O)O`, for which half-maximal inhibition (IC50) required 80 nM.
To `CSCC[C@H](NC(=O)CN1C(=O)[C@H](N(C)C(=O)[C@@H](N)CS)N=C(c2ccccc2)c2ccccc21)C(=O)O` (stereo in doubt; form 1) belongs 370 nM; to `CSCC[C@H](NC(=O)CN1C(=O)[C@H](N(C)C(=O)[C@@H](N)CS)N=C(c2ccccc2)c2ccccc21)C(=O)O` (stereo in doubt; form 2), 0.85 nM.
Next, `CSCC[C@H](NC(=O)CN1C(=O)[C@H](N(C)C(=O)[C@@H](N)CS)N=C(c2ccccc2)c2ccccc21)C(=O)O` (stereo in doubt; form 3): 2.1 nM.
